From US20160151335A1, “METHODS OF MODULATING CFTR ACTIVITY” (PROTEOSTASIS THERAPEUTICS, INC., priority 2013, published 2016)

Tests used:
ΔF508-CFTR [1] = molecular target: T1, ΔF508-CFTR (Homo sapiens, UniProt P13569, DEL508-508); assay: Ussing chamber short-circuit current measurement, CFTRinh-172-inhibitable current; format: cell-based; conditions: 24 h, primary hBE cells homozygous ΔF508, relative to VX-809 (1 uM); for Solo % VX809 (Ussing activity): compound at 10 uM alone; for Combination % VX809 (Ussing activity): compound at 10 uM with VX-809 at 1 uM
T1 construct: Primary lung epithelial cells (hBEs) homozygous for the Cystic Fibrosis-causing ΔF508 mutation; endogenous in cells; host or cells: primary lung (bronchial) epithelial cells (hBE) homozygous for ΔF508, differentiated at an air-liquid interface
T1 sequence (P13569 with tags, fused parts or gaps DEL508-508): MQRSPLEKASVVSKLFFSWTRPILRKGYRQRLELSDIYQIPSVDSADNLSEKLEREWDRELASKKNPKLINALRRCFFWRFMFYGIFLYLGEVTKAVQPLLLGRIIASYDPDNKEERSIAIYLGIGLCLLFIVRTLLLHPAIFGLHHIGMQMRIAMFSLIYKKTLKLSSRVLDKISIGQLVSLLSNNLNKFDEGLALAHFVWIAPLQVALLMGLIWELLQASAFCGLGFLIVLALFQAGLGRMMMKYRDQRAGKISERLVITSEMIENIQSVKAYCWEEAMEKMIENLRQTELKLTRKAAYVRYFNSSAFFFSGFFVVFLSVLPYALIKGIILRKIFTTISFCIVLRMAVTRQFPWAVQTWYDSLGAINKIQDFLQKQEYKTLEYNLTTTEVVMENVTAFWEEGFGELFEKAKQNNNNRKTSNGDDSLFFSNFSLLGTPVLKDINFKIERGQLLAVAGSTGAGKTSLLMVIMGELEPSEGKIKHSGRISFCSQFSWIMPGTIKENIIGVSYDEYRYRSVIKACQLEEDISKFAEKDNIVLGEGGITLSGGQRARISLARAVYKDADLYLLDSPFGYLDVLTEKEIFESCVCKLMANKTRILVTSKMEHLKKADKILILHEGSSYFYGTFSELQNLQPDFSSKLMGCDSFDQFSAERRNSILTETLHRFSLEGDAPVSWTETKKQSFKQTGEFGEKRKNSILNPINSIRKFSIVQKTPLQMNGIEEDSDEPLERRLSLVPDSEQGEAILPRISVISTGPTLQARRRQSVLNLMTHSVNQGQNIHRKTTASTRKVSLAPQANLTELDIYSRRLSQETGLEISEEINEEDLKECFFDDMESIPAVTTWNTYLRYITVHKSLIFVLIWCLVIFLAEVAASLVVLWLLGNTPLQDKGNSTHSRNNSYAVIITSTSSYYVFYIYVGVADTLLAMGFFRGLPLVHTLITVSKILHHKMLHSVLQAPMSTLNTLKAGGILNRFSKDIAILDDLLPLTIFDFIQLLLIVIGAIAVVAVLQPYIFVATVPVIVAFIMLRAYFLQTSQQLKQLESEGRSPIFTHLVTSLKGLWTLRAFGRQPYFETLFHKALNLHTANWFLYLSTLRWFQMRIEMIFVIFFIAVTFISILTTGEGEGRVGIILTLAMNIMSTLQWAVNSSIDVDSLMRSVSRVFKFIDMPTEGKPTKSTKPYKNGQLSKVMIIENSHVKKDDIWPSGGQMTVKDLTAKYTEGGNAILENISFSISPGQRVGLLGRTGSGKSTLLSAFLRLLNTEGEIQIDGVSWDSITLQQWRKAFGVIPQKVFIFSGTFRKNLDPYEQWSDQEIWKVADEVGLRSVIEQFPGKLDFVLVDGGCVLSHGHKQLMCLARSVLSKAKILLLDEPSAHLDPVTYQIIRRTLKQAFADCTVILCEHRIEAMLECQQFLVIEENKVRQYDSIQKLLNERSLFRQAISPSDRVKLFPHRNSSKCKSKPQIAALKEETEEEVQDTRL
Procedure: Primary lung epithelial cells (hBEs) homozygous for the Cystic Fibrosis-causing ΔF508 mutation were differentiated for a minimum of 4 weeks in an air-liquid interface on SnapWell filter plates prior to the Ussing measurements. Cells were apically mucus-washed for 30 minutes prior to treatment with compounds. The basolateral media was removed and replaced with media containing the compound of interest diluted to its final concentration from DMSO stocks. Treated cells were incubated at 37° C. and 5% CO2 for 24 hours. At the end of the treatment period, the cells on filters were transferred to the Ussing chamber and equilibrated for 30 minutes. The short-circuit current was measured in voltage clamp-mode (Vhold=0 mV), and the entire assay was conducted at a temperature of 36° C.-36.5° C. Once the voltages stabilized, the chambers were clamped, and data was recorded by pulse readings every 5 seconds. Following baseline current stabilization, the following additions were applied and the changes in current and resistance of the cells monitored: • 1. Benzamil to the apical chamber to inhibit ENaC sodium channel. • 2. Forskolin to both chambers to activate ΔF508-CFTR by phosphorylation. • 3. Genistein to both chambers to potentiate ΔF508-CFTR channel opening. • 4. CFTRinh-172 to the apical chamber to inhibit ΔF508-CFTR Cl− conductance.
The inhibitable current (that current that is blocked by CFTRinh-172) was measured as the specific activity of the ΔF508-CFTR channel, and increases in response to compound in this activity over that observed in vehicle-treated samples were identified as the correction of ΔF508-CFTR function imparted by the compound tested. ++ indicates activity ≧25% of VX-809 (1 uM) with compound at 10 uM and VX-809 at 1 uM; ** indicates activity ≧200% of VX-809 (1 uM) with compound at 10 uM and VX-809 at 1 uM; ** indicates activity 100-200% of VX-809 (1 uM) with compound at 10 uM and VX-809 at 1 uM; The transepithelial resistance (TER) for these compounds are within 30% of DMSO controls.

ΔF508-CFTR [2] = molecular target: T1, ΔF508-CFTR; assay: hBE equivalent current (Ieq) assay, AUC of equivalent chloride current; format: cell-based; conditions: compound at 10 uM, 24 h, primary hBE cells homozygous ΔF508; AUC increase relative to VX-809 at 1 uM
Procedure: Primary lung epithelial cells homozygous for the Cystic Fibrosis-causing ΔF508 mutation were differentiated for a minimum of 4 weeks in an air-liquid interface on Costar 24 well HTS filter plates prior to the equivalent current (Ieq) measurements. Cells were apically mucus-washed for 30 minutes 24 h prior to treatment with compounds. The basolateral media was removed and replaced with media containing the compound of interest diluted to its final concentration from DMSO stocks. Treated cells were incubated at 37° C. and 5% CO2 for 24 hours. At the end of the treatment period, the media was changed to the Ieq experimental solution for 30 minutes before the experiment and plates are maintained in a CO2-free incubator during this period. The plates containing the cells were then placed in pre-warmed heating blocks at 36° C.±0.5 for 15 minutes before measurements are taken. The transepithelial voltage (VT) and conductance (GT) were measured using a custom 24 channel current clamp (TECC-24) with 24 well electrode manifold. The Ieq assay measurements were made following additions with standardized time periods: • 1. The baseline VT and GT values were measured for approximately 20 minutes. • 2. Benzamil was added to block ENaC for 15 minutes. • 3. Forskolin plus VX-770 were added to maximally activate ΔF508-CFTR for 27 minutes. • 4. Bumetanide was added to inhibit the NaK2Cl cotransporter and shut-off secretion of chloride. The activity data captured was the area under the curve (AUC) for the traces of the equivalent chloride current. The AUC was collected from the time of the forskolin/VX-770 addition until the inhibition by bumetanide addition. Correction in response to compound treatment was scored as the increase in the AUC for compound-treated samples over that of vehicle-treated samples. (++ indicates activity ≧25% run at 10 uM of VX-809 at 1 uM, + indicates activity 10 to ≦25% run at 10 uM of VX-809 at 1 uM.

SMILES: Cc1cn(CCNC(=O)c2cc(-c3ccccc3)on2)nn1 [Compound 9]
- Solo % VX809 (Ussing activity) (ΔF508-CFTR [1]): ++ (++ indicates activity ≧25% of VX-809 (1 uM) with compound at 10 uM and VX-809 at 1 uM)

SMILES: O=C(NCCCn1ccnc1)c1cc(-c2ccccc2)on1 [Compound 16]
- Solo % VX809 (Ussing activity) (ΔF508-CFTR [1]): ++ (++ indicates activity ≧25% of VX-809 (1 uM) with compound at 10 uM and VX-809 at 1 uM)
- Combination % VX809 (Ussing activity) (ΔF508-CFTR [1]): ** (** indicates activity ≧200% of VX-809 (1 uM) with compound at 10 uM and VX-809 at 1 uM)
- Ieq hBE Activity (ΔF508-CFTR [2]): ++ (++ indicates activity ≧25% run at 10 uM of VX-809 at 1 uM)

SMILES: Cn1ccnc1SCCNC(=O)c1cc(-c2ccccc2)on1 [Compound 18]
- Solo % VX809 (Ussing activity) (ΔF508-CFTR [1]): ++ (++ indicates activity ≧25% of VX-809 (1 uM) with compound at 10 uM and VX-809 at 1 uM)
- Combination % VX809 (Ussing activity) (ΔF508-CFTR [1]): ** (** indicates activity ≧200% of VX-809 (1 uM) with compound at 10 uM and VX-809 at 1 uM)
- Ieq hBE Activity (ΔF508-CFTR [2]): ++ (++ indicates activity ≧25% run at 10 uM of VX-809 at 1 uM)

SMILES: O=C(NCCCC(F)(F)F)c1cc(-c2cccs2)on1 [Compound 223]
- Ieq hBE Activity (ΔF508-CFTR [2]): ++ (++ indicates activity ≧25% run at 10 uM of VX-809 at 1 uM)

SMILES: COCCNC(=O)c1cc(-c2cccs2)on1 [Compound 224]
- Ieq hBE Activity (ΔF508-CFTR [2]): ++ (++ indicates activity ≧25% run at 10 uM of VX-809 at 1 uM)

SMILES: O=C(NCC1CCCO1)c1cc(-c2cccs2)on1 (centres unmarked) [Compound 225]
- Ieq hBE Activity (ΔF508-CFTR [2]): ++ (++ indicates activity ≧25% run at 10 uM of VX-809 at 1 uM)

SMILES: O=C(NCC1CCOC1)c1cc(-c2cccs2)on1 (centres unmarked) [Compound 226]
- Ieq hBE Activity (ΔF508-CFTR [2]): ++ (++ indicates activity ≧25% run at 10 uM of VX-809 at 1 uM)

SMILES: O=C(NCCn1nccn1)c1cc(-c2cccs2)on1 [Compound 228]
- Ieq hBE Activity (ΔF508-CFTR [2]): ++ (++ indicates activity ≧25% run at 10 uM of VX-809 at 1 uM)

SMILES: O=C(NCCN1CCOCC1)c1cc(-c2cccs2)on1 [Compound 229]
- Ieq hBE Activity (ΔF508-CFTR [2]): + (+ indicates activity 10 to ≦25% run at 10 uM of VX-809 at 1 uM)

SMILES: O=C(NCCC1CCOCC1)c1cc(-c2cccs2)on1 [Compound 230]
- Ieq hBE Activity (ΔF508-CFTR [2]): ++ (++ indicates activity ≧25% run at 10 uM of VX-809 at 1 uM)

SMILES: O=C(NCCc1ccccn1)c1cc(-c2cccs2)on1 [Compound 232]
- Ieq hBE Activity (ΔF508-CFTR [2]): ++ (++ indicates activity ≧25% run at 10 uM of VX-809 at 1 uM)

SMILES: O=C(NCCc1cccnc1)c1cc(-c2cccs2)on1 [Compound 233]
- Ieq hBE Activity (ΔF508-CFTR [2]): + (+ indicates activity 10 to ≦25% run at 10 uM of VX-809 at 1 uM)

SMILES: O=C(NCCc1ccncc1)c1cc(-c2cccs2)on1 [Compound 234]
- Ieq hBE Activity (ΔF508-CFTR [2]): ++ (++ indicates activity ≧25% run at 10 uM of VX-809 at 1 uM)

SMILES: O=C(NCCCn1ccnc1)c1cc(-c2cccs2)on1 [Compound 237]
- Ieq hBE Activity (ΔF508-CFTR [2]): ++ (++ indicates activity ≧25% run at 10 uM of VX-809 at 1 uM)

SMILES: O=C(NCCCCc1ccncc1)c1cc(-c2cccs2)on1 [Compound 239]
- Ieq hBE Activity (ΔF508-CFTR [2]): + (+ indicates activity 10 to ≦25% run at 10 uM of VX-809 at 1 uM)

SMILES: CN(CC1CCCO1)C(=O)c1cc(CN2CCOCC2)on1 (centres unmarked) [Compound 256]
- Ieq hBE Activity (ΔF508-CFTR [2]): + (+ indicates activity 10 to ≦25% run at 10 uM of VX-809 at 1 uM)

SMILES: Cn1nncc1CCCNC(=O)c1cc(-c2ccccc2)on1 [Compound 295]
- Ieq hBE Activity (ΔF508-CFTR [2]): + (+ indicates activity 10 to ≦25% run at 10 uM of VX-809 at 1 uM)

SMILES: O=C(NCC1CCCO1)c1cc(-c2ccco2)on1 (centres unmarked) [Compound 321]
- Ieq hBE Activity (ΔF508-CFTR [2]): + (+ indicates activity 10 to ≦25% run at 10 uM of VX-809 at 1 uM)

SMILES: COCCNC(=O)c1cc(-c2ccccc2)on1 [Compound 329A]
- Ieq hBE Activity (ΔF508-CFTR [2]): ++ (++ indicates activity ≧25% run at 10 uM of VX-809 at 1 uM)

SMILES: CCNC(=O)c1cc(-c2ccccc2)on1 [Compound 336]
- Ieq hBE Activity (ΔF508-CFTR [2]): ++ (++ indicates activity ≧25% run at 10 uM of VX-809 at 1 uM)

SMILES: CCCCNC(=O)c1cc(-c2ccc(F)cc2)on1 [Compound 342]
- Ieq hBE Activity (ΔF508-CFTR [2]): ++ (++ indicates activity ≧25% run at 10 uM of VX-809 at 1 uM)

SMILES: O=C(N[C@H]1CC[C@H](O)CC1)c1cc(-c2ccccc2)on1 [Compound 343]
- Ieq hBE Activity (ΔF508-CFTR [2]): + (+ indicates activity 10 to ≦25% run at 10 uM of VX-809 at 1 uM)

SMILES: Cc1nnsc1CNC(=O)c1cc(-c2ccccc2)on1 [Compound 344]
- Ieq hBE Activity (ΔF508-CFTR [2]): + (+ indicates activity 10 to ≦25% run at 10 uM of VX-809 at 1 uM)

SMILES: O=C(Nc1cccnc1)c1cc(-c2ccccc2)on1 [Compound 345]
- Ieq hBE Activity (ΔF508-CFTR [2]): + (+ indicates activity 10 to ≦25% run at 10 uM of VX-809 at 1 uM)

SMILES: O=C(NCCCCO)c1cc(-c2cccs2)on1 [Compound 349]
- Ieq hBE Activity (ΔF508-CFTR [2]): ++ (++ indicates activity ≧25% run at 10 uM of VX-809 at 1 uM)

SMILES: COCc1nc(CNC(=O)c2cc(-c3ccccc3)on2)no1 [Compound 372]
- Ieq hBE Activity (ΔF508-CFTR [2]): ++ (++ indicates activity ≧25% run at 10 uM of VX-809 at 1 uM)

SMILES: O=C(NCCNC(=O)c1cc(-c2ccccc2)on1)c1cccnc1 [Compound 373]
- Ieq hBE Activity (ΔF508-CFTR [2]): ++ (++ indicates activity ≧25% run at 10 uM of VX-809 at 1 uM)

SMILES: CCc1ncc(CCNC(=O)c2cc(-c3ccccc3)on2)s1 [Compound 374]
- Ieq hBE Activity (ΔF508-CFTR [2]): + (+ indicates activity 10 to ≦25% run at 10 uM of VX-809 at 1 uM)

SMILES: Cc1ncc(NCCNC(=O)c2cc(-c3ccccc3)on2)[nH]c1=O [Compound 375]
- Ieq hBE Activity (ΔF508-CFTR [2]): + (+ indicates activity 10 to ≦25% run at 10 uM of VX-809 at 1 uM)

SMILES: O=C(NCCn1ccnn1)c1cc(-c2ccccc2)on1 [Compound 376]
- Ieq hBE Activity (ΔF508-CFTR [2]): ++ (++ indicates activity ≧25% run at 10 uM of VX-809 at 1 uM)

SMILES: O=C(NCCn1ccnn1)c1cc(-c2cccs2)on1 [Compound 377]
- Ieq hBE Activity (ΔF508-CFTR [2]): ++ (++ indicates activity ≧25% run at 10 uM of VX-809 at 1 uM)
